Laboratory results from the Kinase Knowledgebase extract (Sharma et al. 2016).

What was measured:
PIK3CB (Human) = PIK3CB (Human) (UniProt P42338); assay: Inhibition of PIK3CB Kinase Activity
PIK3CD (Human) = PIK3CD (Human) (UniProt O00329); assay: Inhibition of PIK3CD Kinase Activity
PIK3CG (human) = PIK3CG (human) (UniProt P48736); assay: Inhibition of PIK3CG Kinase Activity
PIK3CA (human) = PIK3CA (human) (UniProt P42336); assay: Inhibition of PIK3CA Kinase Activity

Measured: IC50

Chain of PIK3CD (Human) (O00329 whole entry, looked up): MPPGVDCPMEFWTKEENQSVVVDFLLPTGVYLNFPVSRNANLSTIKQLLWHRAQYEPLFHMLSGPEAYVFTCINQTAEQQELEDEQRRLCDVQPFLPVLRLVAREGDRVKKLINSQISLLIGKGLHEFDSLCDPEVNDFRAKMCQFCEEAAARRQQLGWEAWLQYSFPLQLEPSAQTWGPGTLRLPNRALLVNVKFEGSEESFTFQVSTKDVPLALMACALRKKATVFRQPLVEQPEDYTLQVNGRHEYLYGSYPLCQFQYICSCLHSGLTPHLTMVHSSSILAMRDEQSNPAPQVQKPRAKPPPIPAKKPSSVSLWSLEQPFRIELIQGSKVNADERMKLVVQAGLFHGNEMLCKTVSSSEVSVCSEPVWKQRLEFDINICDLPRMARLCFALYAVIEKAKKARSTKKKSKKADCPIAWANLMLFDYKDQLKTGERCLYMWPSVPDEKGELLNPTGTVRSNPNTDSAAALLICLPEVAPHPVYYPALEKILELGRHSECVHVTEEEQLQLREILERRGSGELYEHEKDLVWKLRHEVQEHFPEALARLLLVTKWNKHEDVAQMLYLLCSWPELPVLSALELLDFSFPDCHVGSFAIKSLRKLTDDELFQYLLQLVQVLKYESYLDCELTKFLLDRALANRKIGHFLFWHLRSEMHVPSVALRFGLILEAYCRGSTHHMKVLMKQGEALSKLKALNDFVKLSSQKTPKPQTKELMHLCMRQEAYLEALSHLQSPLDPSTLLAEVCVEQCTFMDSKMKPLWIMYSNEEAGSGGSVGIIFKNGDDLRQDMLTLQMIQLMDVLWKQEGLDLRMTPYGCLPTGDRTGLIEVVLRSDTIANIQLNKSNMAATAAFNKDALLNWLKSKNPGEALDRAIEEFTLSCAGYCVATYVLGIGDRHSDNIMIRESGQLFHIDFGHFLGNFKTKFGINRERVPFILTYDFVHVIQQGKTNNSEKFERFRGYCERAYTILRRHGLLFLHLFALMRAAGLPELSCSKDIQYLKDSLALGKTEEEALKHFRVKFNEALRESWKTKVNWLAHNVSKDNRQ
Chain of PIK3CB (Human) (P42338 whole entry, looked up): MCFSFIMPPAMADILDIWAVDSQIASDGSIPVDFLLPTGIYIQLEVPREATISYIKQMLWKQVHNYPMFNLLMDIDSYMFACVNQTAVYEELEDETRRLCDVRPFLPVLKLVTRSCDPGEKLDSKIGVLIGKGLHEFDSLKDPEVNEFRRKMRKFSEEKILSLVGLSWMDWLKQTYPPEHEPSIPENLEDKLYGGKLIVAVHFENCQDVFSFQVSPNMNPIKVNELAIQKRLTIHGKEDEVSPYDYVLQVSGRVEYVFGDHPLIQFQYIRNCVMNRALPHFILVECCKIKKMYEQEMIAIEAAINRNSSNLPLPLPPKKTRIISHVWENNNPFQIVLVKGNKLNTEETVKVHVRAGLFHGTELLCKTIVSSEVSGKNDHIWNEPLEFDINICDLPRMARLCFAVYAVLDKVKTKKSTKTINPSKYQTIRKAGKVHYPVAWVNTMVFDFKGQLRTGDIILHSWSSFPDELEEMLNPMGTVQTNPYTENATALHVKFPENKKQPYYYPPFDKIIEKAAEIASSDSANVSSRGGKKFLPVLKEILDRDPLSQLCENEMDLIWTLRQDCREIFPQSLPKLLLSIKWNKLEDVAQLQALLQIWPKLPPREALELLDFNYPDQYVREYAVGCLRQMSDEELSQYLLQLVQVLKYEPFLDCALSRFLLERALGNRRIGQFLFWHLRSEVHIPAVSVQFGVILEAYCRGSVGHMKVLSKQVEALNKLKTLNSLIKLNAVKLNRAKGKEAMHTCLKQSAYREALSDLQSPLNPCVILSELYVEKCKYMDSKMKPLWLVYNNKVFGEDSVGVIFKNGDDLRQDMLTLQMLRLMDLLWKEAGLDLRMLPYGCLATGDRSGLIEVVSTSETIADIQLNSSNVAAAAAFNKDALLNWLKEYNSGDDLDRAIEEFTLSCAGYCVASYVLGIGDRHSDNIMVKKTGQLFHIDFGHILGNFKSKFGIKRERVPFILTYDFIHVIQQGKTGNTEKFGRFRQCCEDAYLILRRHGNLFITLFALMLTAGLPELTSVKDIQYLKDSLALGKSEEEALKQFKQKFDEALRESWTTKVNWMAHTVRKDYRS
Chain of PIK3CA (human) (P42336 whole entry, looked up): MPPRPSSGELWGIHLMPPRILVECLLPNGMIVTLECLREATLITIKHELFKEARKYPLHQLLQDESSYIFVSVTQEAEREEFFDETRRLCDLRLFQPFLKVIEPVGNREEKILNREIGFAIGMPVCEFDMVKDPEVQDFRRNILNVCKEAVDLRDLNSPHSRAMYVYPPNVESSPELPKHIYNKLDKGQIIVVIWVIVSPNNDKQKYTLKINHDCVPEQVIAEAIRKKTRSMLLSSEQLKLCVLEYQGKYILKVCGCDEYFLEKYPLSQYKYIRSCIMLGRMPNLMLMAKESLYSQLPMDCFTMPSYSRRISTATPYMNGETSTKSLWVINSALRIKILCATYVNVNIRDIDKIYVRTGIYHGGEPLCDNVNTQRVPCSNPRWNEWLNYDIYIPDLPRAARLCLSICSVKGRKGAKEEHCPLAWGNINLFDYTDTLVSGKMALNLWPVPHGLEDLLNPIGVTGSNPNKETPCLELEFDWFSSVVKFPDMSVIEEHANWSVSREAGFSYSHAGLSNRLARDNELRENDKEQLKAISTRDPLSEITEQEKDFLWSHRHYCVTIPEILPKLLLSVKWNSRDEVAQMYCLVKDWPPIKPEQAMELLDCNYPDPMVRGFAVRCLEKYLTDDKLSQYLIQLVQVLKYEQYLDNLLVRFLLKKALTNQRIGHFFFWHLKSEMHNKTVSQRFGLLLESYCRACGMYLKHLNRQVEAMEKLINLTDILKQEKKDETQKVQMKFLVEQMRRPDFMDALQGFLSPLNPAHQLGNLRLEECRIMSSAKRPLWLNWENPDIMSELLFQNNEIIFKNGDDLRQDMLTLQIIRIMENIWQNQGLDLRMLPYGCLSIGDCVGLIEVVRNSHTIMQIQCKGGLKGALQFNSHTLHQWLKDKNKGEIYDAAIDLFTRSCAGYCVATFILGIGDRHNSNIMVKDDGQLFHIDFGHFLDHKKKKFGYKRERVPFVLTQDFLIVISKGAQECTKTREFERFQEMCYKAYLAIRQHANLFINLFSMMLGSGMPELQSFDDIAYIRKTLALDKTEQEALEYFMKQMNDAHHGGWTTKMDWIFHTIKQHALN
Chain of PIK3CG (human) (P48736 whole entry, looked up): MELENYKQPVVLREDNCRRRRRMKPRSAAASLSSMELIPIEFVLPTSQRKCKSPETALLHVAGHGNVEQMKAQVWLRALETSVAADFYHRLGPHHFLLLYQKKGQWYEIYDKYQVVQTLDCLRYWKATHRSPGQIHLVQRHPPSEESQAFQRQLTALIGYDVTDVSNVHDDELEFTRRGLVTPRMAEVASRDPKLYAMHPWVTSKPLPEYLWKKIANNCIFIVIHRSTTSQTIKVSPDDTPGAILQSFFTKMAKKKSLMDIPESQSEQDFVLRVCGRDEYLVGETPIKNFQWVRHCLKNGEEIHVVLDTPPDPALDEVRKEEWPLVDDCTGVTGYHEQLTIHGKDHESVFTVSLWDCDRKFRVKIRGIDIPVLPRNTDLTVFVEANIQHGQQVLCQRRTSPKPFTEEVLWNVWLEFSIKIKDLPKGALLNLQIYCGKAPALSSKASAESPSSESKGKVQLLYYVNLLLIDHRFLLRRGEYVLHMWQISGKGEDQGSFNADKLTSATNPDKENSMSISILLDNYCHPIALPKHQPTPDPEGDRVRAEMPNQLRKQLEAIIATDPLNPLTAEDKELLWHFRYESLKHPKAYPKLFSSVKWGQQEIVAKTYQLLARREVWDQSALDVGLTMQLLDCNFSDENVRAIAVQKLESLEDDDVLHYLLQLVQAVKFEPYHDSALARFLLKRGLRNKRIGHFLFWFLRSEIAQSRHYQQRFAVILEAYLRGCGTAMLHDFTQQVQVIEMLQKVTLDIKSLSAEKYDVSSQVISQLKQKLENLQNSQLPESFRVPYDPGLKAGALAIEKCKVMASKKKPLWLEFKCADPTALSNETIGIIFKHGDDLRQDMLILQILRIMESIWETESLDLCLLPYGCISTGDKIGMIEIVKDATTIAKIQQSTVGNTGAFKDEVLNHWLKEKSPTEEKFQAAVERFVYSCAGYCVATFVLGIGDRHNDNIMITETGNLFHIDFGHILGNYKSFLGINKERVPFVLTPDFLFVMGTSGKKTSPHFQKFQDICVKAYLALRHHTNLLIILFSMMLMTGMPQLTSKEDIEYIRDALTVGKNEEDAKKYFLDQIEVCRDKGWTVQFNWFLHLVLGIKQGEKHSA

CC1(C)CC(=S)c2sc(N3CCOCC3Cc3cccc4ccccc34)nc2C1 (configuration not stated)
≤ 50 µM: PIK3CB (Human) | PIK3CD (Human) | PIK3CG (human) | PIK3CA (human)

CC1(C)CC(=O)c2sc(N3CCOC[C@@H]3Cc3cccc(-c4cccnc4)c3)nc2C1
≤ 50 µM: PIK3CB (Human) | PIK3CD (Human) | PIK3CG (human) | PIK3CA (human)

CC1(C)CC(=O)c2sc(N3CCOC[C@@H]3Cc3cccc(-c4ccc(Cl)cc4)c3)nc2C1
≤ 50 µM: PIK3CB (Human) | PIK3CD (Human) | PIK3CG (human) | PIK3CA (human)

COc1ccc2c(c1)CCCN2C(=O)C1COCCN1c1nc2c(s1)C(=O)CC(C)(C)C2 (configuration not stated)
≤ 50 µM: PIK3CB (Human) | PIK3CD (Human) | PIK3CG (human) | PIK3CA (human)

CC1(C)CCc2nc(N3CCOCC3)sc2C1=NO
≤ 50 µM: PIK3CB (Human) | PIK3CD (Human) | PIK3CG (human) | PIK3CA (human)

O=C1CC(c2ccc(Cl)cc2)Cc2nc(N3CCOCC3)sc21 (configuration not stated)
≤ 50 µM: PIK3CB (Human) | PIK3CD (Human) | PIK3CG (human) | PIK3CA (human)

CC1(C)CC(=O)c2sc(N3CCOCC3Cn3ccc4ccccc43)nc2C1 (configuration not stated)
≤ 50 µM: PIK3CB (Human) | PIK3CD (Human) | PIK3CG (human) | PIK3CA (human)

CC1(C)CNC(=O)c2sc(N3CCOC[C@@H]3Cc3cccc(-c4cccnc4)c3)nc2C1
≤ 50 µM: PIK3CB (Human) | PIK3CD (Human) | PIK3CG (human) | PIK3CA (human)

CC1(C)CC(=O)c2sc(N3CCOCC3Cc3csc4ccccc34)nc2C1 (configuration not stated)
≤ 50 µM: PIK3CB (Human) | PIK3CD (Human) | PIK3CG (human) | PIK3CA (human)

CC1(C)CC(=O)c2sc(N3CCOC[C@@H]3Cc3cccc(-c4ccccc4F)c3)nc2C1
≤ 50 µM: PIK3CB (Human) | PIK3CD (Human) | PIK3CG (human) | PIK3CA (human)

Cc1cccc(-c2cccc(C[C@H]3COCCN3c3nc4c(s3)C(=O)CC(C)(C)C4)c2)c1C
≤ 50 µM: PIK3CB (Human) | PIK3CD (Human) | PIK3CG (human) | PIK3CA (human)

CC1(C)CC(=O)c2sc(N3CCOC[C@@H]3Cc3cccc(-c4cccc5ccccc45)c3)nc2C1
≤ 50 µM: PIK3CB (Human) | PIK3CD (Human) | PIK3CG (human) | PIK3CA (human)

CC1(C)CC(=O)c2sc(N3CCOC[C@@H]3Cc3cccc(-c4cccc(C(F)(F)F)c4)c3)nc2C1
≤ 50 µM: PIK3CB (Human) | PIK3CD (Human) | PIK3CG (human) | PIK3CA (human)

CC1(C)CC(=O)c2sc(N3CCOC[C@@H]3Cc3cccc(-c4cnn(Cc5ccccc5)c4)c3)nc2C1
≤ 50 µM: PIK3CB (Human) | PIK3CD (Human) | PIK3CG (human) | PIK3CA (human)

CC1(C)CNC(=S)c2sc(N3CCOCC3)nc2C1
≤ 50 µM: PIK3CB (Human) | PIK3CD (Human) | PIK3CG (human) | PIK3CA (human)

CC1(C)CC(=O)c2sc(N3CCOC[C@@H]3Cc3cccc(-c4ccc(F)cc4)c3)nc2C1
≤ 50 µM: PIK3CB (Human) | PIK3CD (Human) | PIK3CG (human) | PIK3CA (human)

Cc1ccc2[nH]cc(CC3COCCN3c3nc4c(s3)C(=S)CC(C)(C)C4)c2c1 (configuration not stated)
≤ 50 µM: PIK3CB (Human) | PIK3CD (Human) | PIK3CG (human) | PIK3CA (human)

Cn1cc(-c2cccc(C[C@H]3COCCN3c3nc4c(s3)C(=O)CC(C)(C)C4)c2)cn1
≤ 50 µM: PIK3CB (Human) | PIK3CD (Human) | PIK3CG (human) | PIK3CA (human)

CC1(C)CC(=O)c2sc(N3CCOC[C@@H]3Cc3cccc(-c4cn(S(=O)(=O)c5ccccc5)c5ccccc45)c3)nc2C1
≤ 50 µM: PIK3CB (Human) | PIK3CD (Human) | PIK3CG (human) | PIK3CA (human)

CC1(C)CC(=O)c2sc(nc2C1)N3CCOCC3C(=O)N4=Cc5ccccc5CC4
≤ 50 µM: PIK3CB (Human) | PIK3CD (Human) | PIK3CG (human) | PIK3CA (human)

CC1(C)CC(=O)c2sc(N3CCOCC3Cc3cccc(Br)n3)nc2C1 (configuration not stated)
≤ 50 µM: PIK3CB (Human) | PIK3CD (Human) | PIK3CG (human) | PIK3CA (human)

CC1(C)CNC(=S)c2sc(N3CCOC[C@@H]3Cc3c[nH]c4ccccc34)nc2C1
≤ 50 µM: PIK3CB (Human) | PIK3CD (Human) | PIK3CG (human) | PIK3CA (human)

CC(=O)c1ccc(-c2cccc(C[C@H]3COCCN3c3nc4c(s3)C(=O)CC(C)(C)C4)c2)cc1
≤ 50 µM: PIK3CB (Human) | PIK3CD (Human) | PIK3CG (human) | PIK3CA (human)

CC1(C)CCc2nc(N3CCOCC3)sc2C(=O)N1
≤ 50 µM: PIK3CB (Human) | PIK3CD (Human) | PIK3CG (human) | PIK3CA (human)

CC(=O)c1ccc(-c2cccc(C[C@H]3COCCN3c3nc4c(s3)C(=O)CC(C)(C)C4)c2)s1
≤ 50 µM: PIK3CB (Human) | PIK3CD (Human) | PIK3CG (human) | PIK3CA (human)

COc1ccccc1-c1cccc(C[C@H]2COCCN2c2nc3c(s2)C(=O)CC(C)(C)C3)c1
≤ 50 µM: PIK3CB (Human) | PIK3CD (Human) | PIK3CG (human) | PIK3CA (human)

CC1(C)CC(=O)c2sc(N3CCOC[C@@H]3Cc3cccc(-c4ccc(F)c(F)c4)c3)nc2C1
≤ 50 µM: PIK3CB (Human) | PIK3CD (Human) | PIK3CG (human) | PIK3CA (human)

CC(=O)c1cccc(-c2cccc(C[C@H]3COCCN3c3nc4c(s3)C(=O)CC(C)(C)C4)c2)c1
≤ 50 µM: PIK3CB (Human) | PIK3CD (Human) | PIK3CG (human) | PIK3CA (human)

CC1(C)CC(=O)c2sc(N3CCOCC3CN3CCc4ccccc43)nc2C1 (configuration not stated)
≤ 50 µM: PIK3CB (Human) | PIK3CD (Human) | PIK3CG (human) | PIK3CA (human)

Cc1ccccc1-c1cccc(C[C@H]2COCCN2c2nc3c(s2)C(=O)CC(C)(C)C3)c1
≤ 50 µM: PIK3CB (Human) | PIK3CD (Human) | PIK3CG (human) | PIK3CA (human)

CC1(C)CC(=O)c2sc(N3CCOC[C@@H]3Cc3cccc(-c4ccc(C(N)=O)cc4)c3)nc2C1
≤ 50 µM: PIK3CB (Human) | PIK3CD (Human) | PIK3CG (human) | PIK3CA (human)

CC1(C)CC(=O)c2sc(N3CCOC[C@@H]3Cn3cnc4ccccc43)nc2C1
≤ 50 µM: PIK3CB (Human) | PIK3CD (Human) | PIK3CG (human) | PIK3CA (human)

C[C@@H]1CN(c2nc3c(s2)C(=O)CC(C)(C)C3)C[C@@H](C)O1
≤ 50 µM: PIK3CB (Human) | PIK3CD (Human) | PIK3CG (human) | PIK3CA (human)

CC1(C)CC(=O)c2sc(N3CCOC[C@@H]3Cc3cccc(-c4cc5ccccc5o4)c3)nc2C1
≤ 50 µM: PIK3CB (Human) | PIK3CD (Human) | PIK3CG (human) | PIK3CA (human)

COc1ccc(-c2cccc(C[C@H]3COCCN3c3nc4c(s3)C(=O)CC(C)(C)C4)c2)cn1
≤ 50 µM: PIK3CB (Human) | PIK3CD (Human) | PIK3CG (human) | PIK3CA (human)

CC1(C)CC(=O)c2sc(N3CCOCC3Cc3cccc(-c4ccccc4)n3)nc2C1 (configuration not stated)
≤ 50 µM: PIK3CB (Human) | PIK3CD (Human) | PIK3CG (human) | PIK3CA (human)

O=C1CC(c2ccco2)Cc2nc(N3CCOCC3)sc21 (configuration not stated)
≤ 50 µM: PIK3CB (Human) | PIK3CD (Human) | PIK3CG (human) | PIK3CA (human)

CC1(C)CC(=O)c2sc(N3CCOC[C@@H]3Cc3cccc(-c4ccc(Cl)nc4)c3)nc2C1
≤ 50 µM: PIK3CB (Human) | PIK3CD (Human) | PIK3CG (human) | PIK3CA (human)

CC1(C)CC(=O)c2sc(N3CCOCC3Cc3c[nH]c4ccccc34)nc2C1 (configuration not stated)
≤ 50 µM: PIK3CB (Human) | PIK3CD (Human) | PIK3CG (human) | PIK3CA (human)

CC1CCc2nc(N3CCOCC3)sc2C1=NO (configuration not stated)
≤ 50 µM: PIK3CB (Human) | PIK3CD (Human) | PIK3CG (human) | PIK3CA (human)

CC1(C)CC(=O)c2sc(N3CCOCC3C(=O)N3CCCCC3)nc2C1 (configuration not stated)
≤ 50 µM: PIK3CB (Human) | PIK3CD (Human) | PIK3CG (human) | PIK3CA (human)

CSc1ccc(-c2cccc(C[C@H]3COCCN3c3nc4c(s3)C(=O)CC(C)(C)C4)c2)cc1
≤ 50 µM: PIK3CB (Human) | PIK3CD (Human) | PIK3CG (human) | PIK3CA (human)

CC1(C)CC(=O)c2sc(N3CCOCC3Cc3c[nH]c4ncccc34)nc2C1 (configuration not stated)
≤ 50 µM: PIK3CB (Human) | PIK3CD (Human) | PIK3CG (human) | PIK3CA (human)
